Experimental data as given in US20110070270A1, “IMMUNOSTIMULATING AGENT” (priority 2008, published 2011).

Experiments:
[1] = tested on: mouse spleen cells; experiment: IgA production upon LPS stimulation of mouse spleen cells (ELISA of culture supernatant); format: cell-based; details: for IgA concentration (amount of IgA production), mean: BALB/c mouse spleen cells, 5 days culture, supernatant; for Ability to promote IgA production upon LPS stimulation: mouse spleen cells, Student's t test, significance level 5%
Source text: (§1) BALB mice (female) of 6 to 8 weeks old were purchased and fed for 1 week for habituation. A commercially available solid feed was used as a feed and tap water was used as water. In order to evaluate influences of cinacalcet and γ-glutamylvaline on antibody producing activity, a culture system using mouse spleen cells was employed. The spleen was collected from BALB-c mice (n=3). The collected spleen cells were washed and thereafter suspended in an RPMI1640 medium (10% FCS, 50 U/ml penicillin, and 50 μg/ml streptomycin). To cells adjusted to 1×10^6 per a 48 well culture plate, cinacalcet or γ-glutamylvaline (dissolved in a sterilized phosphate buffer), or a phosphate buffer as a control was added. And the cells were then stimulated with 5 μg of LPS (lipopolysaccharide, obtained from Sigma). Thereafter, the cells were cultured in a CO2 incubator at 37° C. for 5 days and the amount of IgA antibody in the supernatant was analyzed.
(§2) The amounts of IgA and IgG were measured by the ELISA method. The method for measuring IgG is shown below. 100 μl of rat anti-mouse IgG antibody (Calbiochem, 1 μg/ml in 50 mM sodium carbonate buffer, pH 8.5) solution was added to a 96 well ELISA plate and the plate was incubated at 4° C. overnight to coat each well with the anti-mouse IgG antibody. The plate was washed three times with PBST (phosphate buffered saline, 0.05% Tween 20) and subjected to a blocking treatment with 200 μl of PBS solution containing 2% BSA at 37° C. for 1 hr.
(§3) The plate was washed three times with PBST. Thereafter, 100 μl of the culture supernatant (9 fold diluted with PBST containing 1% BSA) was added and allowed to react at 37° C. for 2 hr. The plate was again washed four times with PBST. 100 μl of an alkaline phosphatase-conjugated anti-mouse IgG (rabbit) (BD Biosciences) solution diluted 2000 fold with PBST containing 1% BSA was added and allowed to react at 37° C. for 1 hour. The plate was washed six times and then colored with p-nitrophenyl phosphate. The reaction was terminated with 100 μl/well of 3 M NaOH and the absorbance at 405 nm was measured.
The measurement of IgA was carried out in accordance with the method for IgG except that a rat anti-mouse IgA antibody (BD Biosciences) was used as the immobilized antibody, a biotinylated anti-mouse IgA antibody (rat) (BD Biosciences) was used as the labeled antibody, 3,3′,5,5′-tetramethylbenzidine solution (TMB substrate-developing solution, Sigma) was used as the chromogenic substrate, termination of the coloring was carried out using 1 M sulfuric acid, and the absorbance at 450 nm was measured.
(§4) A statistical analysis was carried out by Student's t test and a significance level of 5% or less was considered as significant difference.

[2] = tested on: mouse spleen cells; experiment: IgG production upon ConA stimulation of mouse spleen cells (ELISA of culture supernatant); format: cell-based; details: for IgG concentration (amount of IgG production), mean: BALB/c mouse spleen cells, 5 days culture, supernatant; for Ability to promote IgG production upon ConA stimulation: mouse spleen cells, Student's t test, significance level 5%
Source text: as §1
In the same manner, the cells adjusted to 1×10^6 per a 48 well culture plate were, in the presence or absence of cinacalcet or γ-glutamylvaline, stimulated with 0.5 μg of ConA (concanavalin A). Thereafter, the cells were cultured in a CO2 incubator at 37° C. for 5 days and the amount of IgG antibody in the supernatant was analyzed.
as §2, §3, §4

Row | SMILES | IgA concentration (amount of IgA production), mean ([1]; LPS stimulation + test substance 0.1 mM) | Ability to promote IgA production upon LPS stimulation [1] | IgG concentration (amount of IgG production), mean ([2]; ConA stimulation + test substance 0.1 mM) | Ability to promote IgG production upon ConA stimulation [2] | IgA concentration (amount of IgA production), mean ([1]; LPS stimulation + test substance 0.1 μM) | IgG concentration (amount of IgG production), mean ([2]; ConA stimulation + test substance 0.1 μM)
1 | CC(C)[C@H](NC(=O)CC[C@H](N)C(=O)O)C(=O)O [γ-GluVal, γ-glutamylvaline] | 25.28 ng/mL | significantly confirmed | 62.78 ng/mL | significantly confirmed |  | 
2 | C[C@@H](NCCCc1cccc(C(F)(F)F)c1)c1cccc2ccccc12 [Cinacalcet, (R)—N-(3-(3-(trifluoromethyl)phenyl)propyl)-1-(1-naphthyl)ethylamine] |  | significantly confirmed |  | significantly confirmed | 26.09 ng/mL | 55.24 ng/mL
